# Reference: PubChem BioAssay AID1996
# Conditions: buffer; pH 7.4; 200.0 µM
row,Structure (SMILES),solubility kinetic
1,COCCCNC(=O)C1CCN(c2ccc(N3CCOCC3)nn2)CC1,> 54.5 µg/mL
2,CCNc1nc(NC(C)C)nc(N(C)C#N)n1,> 35.3 µg/mL
3,CCOc1ccc(C(=O)CCC(=O)NC(C)C(=O)OC)cc1 (stereo not given),> 46.1 µg/mL
4,O=C(O)C1CCCN1S(=O)(=O)c1ccc(Br)cc1 (stereo not given),> 50.1 µg/mL
5,O=C1NC(=S)N(c2ccccc2)C(=O)/C1=C/c1ccco1,43 µg/mL
6,Cn1c(=O)[nH]c(=O)c2c1nc(N1CCNCC1)n2Cc1ccccc1,45.8 µg/mL
7,Cc1ccc(-n2c(C)cc(=O)cc2C)cc1[N+](=O)[O-],> 38.7 µg/mL
8,COc1ccc(N2CCN(CC(=O)c3ccc(Cl)cc3)CC2)cc1,45.7 µg/mL
9,CN(C)c1cccc(C(=O)OCC(=O)NC2CCCC2)c1,36.6 µg/mL
10,COc1ccc(/C(C)=N/NC2=NCCN2)cc1Cl,> 40 µg/mL
11,CCc1cccc(CC)c1C(OC(C)=O)c1cccnc1 (stereo not given),30.7 µg/mL
12,CN1CCN(S(=O)(=O)c2ccc(NC(=O)c3ccc([N+](=O)[O-])cc3)cc2)CC1,4.9 µg/mL
13,COc1ccccc1CNC(=O)COC(=O)c1cc(C)oc1C,4.3 µg/mL
14,CC1CCC(NC(=O)CN2C(=O)NC(C)(C)C2=O)CC1 (stereo not given),> 42.2 µg/mL
15,CC(=O)Nc1ccc(NC(=O)c2c(C)noc2C)cc1,> 41 µg/mL
16,O=C(O)CC(CC(=O)Nc1ccccc1C(=O)O)c1ccccc1 (stereo not given),> 49.1 µg/mL
17,CN(C)C=NC(=O)c1cc(C(=O)c2ccc(F)cc2)c[nH]1,> 43.1 µg/mL
18,O=C(CCN1CCN(CCO)CC1)Nc1cccc(Br)c1,> 53.4 µg/mL
19,O=C(NC1CC1)c1ccc(-n2cccc2)cc1,17.4 µg/mL
20,O=C(NN=C1CCCCCCC1)c1ccc(F)cc1,> 39.3 µg/mL

row,Structure (SMILES),solubility kinetic
1,O=C(Nc1ccc(-c2cnco2)cc1)c1ccccc1,< 0.3 µg/mL
2,O=C1NC(=Nc2ccccc2)CS1,> 28.8 µg/mL
3,CC(=O)Nc1ccc(C(=O)COC(=O)CCN2C(=O)C3CC=CCC3C2=O)cc1 (stereo not given),> 59.8 µg/mL
4,CCc1ccc2[nH]c(C(=O)N(C)c3ccc(F)cc3F)cc2c1,1.7 µg/mL
5,COc1ccc(C(=O)NCCCNC(=O)c2ccccn2)cc1,> 47 µg/mL
6,CCN(C(=O)COC(=O)c1ccc(Cl)cc1N)C1CCCCC1,2.7 µg/mL
7,COc1ccccc1OCCNC(=O)CCS(=O)(=O)c1ccccc1,> 54.5 µg/mL
8,COc1cccc(S(=O)(=O)Nc2cccc(C(=O)N3CCCC3)c2)c1,47.9 µg/mL
9,CC(NC(=O)CCCC1CCCCC1)c1ccc(S(N)(=O)=O)cc1 (stereo not given),> 52.9 µg/mL
10,Clc1ccc(/C=C/c2ncc[nH]2)c(Cl)c1,7.7 µg/mL
11,CC(C)[C@H](Nc1ncnc2c1oc1ccccc12)C(=O)O,> 42.8 µg/mL
12,O=C(O)c1cccc(NC2=Nc3cccc4cccc2c34)c1,36.7 µg/mL
13,CCCCCCOc1ccc(C(CC(=O)NC)C(=O)O)cc1 (stereo not given),> 46.1 µg/mL
14,C[n+]1c(-c2ccccc2)sc2ccccc21.[O-][Cl+3]([O-])([O-])[O-],> 48.9 µg/mL
15,CC(NC(=O)C(=O)NCc1cccs1)c1ccccc1 (stereo not given),2.5 µg/mL
16,O=C(CNC(=O)c1ccco1)Nc1ccncc1,36.4 µg/mL
17,NS(=O)(=O)c1ccc(CCNC(=S)NC2CCCC2)cc1,> 49.1 µg/mL
18,O=C(COc1ccc(C(=O)O)cc1)Nc1cccc(C(F)(F)F)c1,> 50.9 µg/mL
19,Cc1ccc(C)c(S(=O)(=O)N(C)Cc2cccs2)c1,9.9 µg/mL
20,CCc1ccc(OCC2NCCc3cc(OC)c(OC)cc32)cc1 (stereo not given),> 49.1 µg/mL

row,Structure (SMILES),solubility kinetic
1,O=C(NCc1ccccc1Cl)c1cc(=O)[nH]c2ccccc12,7.4 µg/mL
2,O=C(COc1ccc(S(=O)(=O)N2CCCC2)cc1)N1CCCCC1,47.6 µg/mL
3,O=C(NCc1ccccc1CN1CCCC1)c1cc2ccccc2o1,> 50.2 µg/mL
4,O=S(=O)(NC1CCN(Cc2ccccc2)CC1)c1ccc(Cl)cc1,> 54.7 µg/mL
5,CCCNC(=O)CSc1nccn1Cc1ccco1,> 41.9 µg/mL
6,O=c1[nH]c(SCc2c(Cl)cccc2Cl)nc2ccccc12,< 0.4 µg/mL
7,COC(=O)c1ccc(NC(=S)N2CCCC2)cc1,> 39.7 µg/mL
8,COc1ccc(C(=O)N2CCCc3ccccc32)cc1Br,26.4 µg/mL
9,COc1ccc(C(=O)Nc2ccc(S(=O)(=O)N3CCOCC3)cc2)cc1,2.9 µg/mL
10,O=C(NC1CC(=O)c2sccc21)c1cccc(C(F)(F)F)c1 (stereo not given),> 48.8 µg/mL
11,COC(=O)c1sccc1NC(=O)c1cccc(F)c1,< 0.6 µg/mL
12,CCOc1ccc(NC(=S)NCc2cccnc2)cc1,> 43.1 µg/mL
13,COc1cc(OC)c(C(=O)O/N=C(\N)c2cccc(C)c2)cc1OC,> 51.7 µg/mL
14,O=C(NC(=S)Nc1cccc(-c2ccc(CO)o2)c1)c1cccs1,4.7 µg/mL
15,Oc1cccc2ccc(/C=C/c3ccccc3Br)nc12,< 0.7 µg/mL
16,COc1cccc(CNc2ccc(C(=O)O)cc2)c1OCc1ccccc1,> 54.5 µg/mL
17,Cc1nc(NC(=O)c2c(-c3ccccc3)noc2C)sc1C(=O)N(C)C,> 55.6 µg/mL
18,C=CCOCC(O)Cn1c(N2CCCC2)nc2c1c(=O)[nH]c(=O)n2C (stereo not given),> 52.4 µg/mL
19,CC1CCCCN1C(C(=O)O)c1ccccc1.Cl (stereo not given),> 40.5 µg/mL
20,COc1ccc(NC(=O)COC(=O)c2cccn2C)cc1S(=O)(=O)N1CCCCC1,32.6 µg/mL
